Laboratory results taken from ChEMBL document CHEMBL1152880, “Synthesis and SAR studies of trisubstituted purinones as potent and selective adenosine A2A receptor antagonists” (Bioorg Med Chem Lett, 2009).

How the values were obtained:
Adenosine receptor A2a = Adenosine receptor A2a (Homo sapiens, UniProt P29274); assay: Displacement of [3H]SCH-58261 from human recombinant adenosine A2A receptor expressed in HEK293 cells; type: cell-based
Adenosine receptor A1 = biological target: T1, Adenosine receptor A1 (Homo sapiens, UniProt P30542); assay: Displacement of [3H]DPCPX from human recombinant adenosine A1 receptor expressed in CHOK1 cells; type: cell-based, CHO-K1
T1 sequence (P30542 whole entry): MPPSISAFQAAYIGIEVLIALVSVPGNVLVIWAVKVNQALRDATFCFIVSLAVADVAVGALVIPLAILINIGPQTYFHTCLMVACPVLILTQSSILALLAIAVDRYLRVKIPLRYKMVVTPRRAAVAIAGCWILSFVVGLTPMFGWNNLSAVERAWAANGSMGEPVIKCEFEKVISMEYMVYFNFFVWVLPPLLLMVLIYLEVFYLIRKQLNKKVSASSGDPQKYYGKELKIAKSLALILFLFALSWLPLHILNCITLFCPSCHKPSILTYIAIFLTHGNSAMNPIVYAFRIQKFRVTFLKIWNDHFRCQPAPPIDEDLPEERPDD

Homo sapiens = species on record: Homo sapiens; assay: Selectivity ratio of Ki for human adenosine A1 receptor to Ki for human recombinant adenosine A2A receptor

Chain of Adenosine receptor A2a (P29274 whole entry): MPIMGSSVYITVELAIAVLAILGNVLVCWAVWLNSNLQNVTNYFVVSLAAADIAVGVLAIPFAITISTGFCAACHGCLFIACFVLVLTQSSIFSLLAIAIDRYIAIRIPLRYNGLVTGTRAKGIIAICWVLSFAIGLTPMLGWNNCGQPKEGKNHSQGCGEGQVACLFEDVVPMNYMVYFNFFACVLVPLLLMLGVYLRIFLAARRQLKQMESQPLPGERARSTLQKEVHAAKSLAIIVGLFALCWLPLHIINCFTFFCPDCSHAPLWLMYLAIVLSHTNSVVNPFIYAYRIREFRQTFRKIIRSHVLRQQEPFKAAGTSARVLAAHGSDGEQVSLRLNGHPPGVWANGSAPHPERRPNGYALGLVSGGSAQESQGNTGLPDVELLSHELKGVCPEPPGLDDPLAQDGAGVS

| Ki (Adenosine receptor A2a) | Ki (Adenosine receptor A1) | Ratio Ki (Homo sapiens) | Compound |
| --- | --- | --- | --- |
| 5120 nM | 1260 nM | 0.2 | COc1cccc(-n2c(=O)n(-c3ccccc3OC)c3cnc(NC4CC4)nc32)c1 |
| 261 nM | 10000 nM | 38 | COc1cccc(-n2c(=O)n(Cc3c(F)cccc3F)c3cnc(NCCN(C)C)nc32)c1 |
| 31 nM | 1050 nM | 34 | CCNc1ncc2c(n1)n(-c1cccc(OC)c1)c(=O)n2Cc1c(F)cccc1F |
| 499 nM | 1070 nM | 2 | COc1cccc(-n2c(=O)n(Cc3c(F)cccc3F)c3cnc(NCC4CC4)nc32)c1 |
| 24 nM | 402 nM | 17 | COc1cccc(-n2c(=O)n(Cc3ccccc3OC)c3cnc(NC4CC4)nc32)c1 |
| 89 nM | 599 nM | 7 | COc1ccccc1Cn1c(=O)n(-c2cccc(F)c2)c2nc(NC3CC3)ncc21 |
| 409 nM | 447 nM | 1.1 | COc1ccccc1Cn1c(=O)n(-c2ccccc2)c2nc(NC3CC3)ncc21 |
| 206 nM | 5140 nM | 25 | COc1ccccc1Cn1c(=O)n(-c2cccc(OC(F)(F)F)c2)c2nc(NC3CC3)ncc21 |
| 6 nM | 330 nM | 55 | COc1cccc(-n2c(=O)n(Cc3c(F)cccc3OC)c3cnc(NC4CC4)nc32)c1 |
| 106 nM | 1470 nM | 14 | COCCNc1ncc2c(n1)n(-c1cccc(OC)c1)c(=O)n2Cc1c(F)cccc1F |
| 78 nM | 1800 nM | 23 | COc1cccc(-n2c(=O)n(Cc3c(F)cccc3F)c3cnc(NCCc4ccccn4)nc32)c1 |
| 2590 nM | 3240 nM | 1.3 | COc1ccccc1Cn1c(=O)n(-c2cccc(C#N)c2)c2nc(NC3CC3)ncc21 |
| 213 nM | 1060 nM | 5 | COc1cccc(-n2c(=O)n(Cc3c(F)cccc3F)c3cnc(NC4CCCC4)nc32)c1 |
| 111 nM | 1830 nM | 17 | COc1cccc(-n2c(=O)n(Cc3c(F)cccc3F)c3cnc(Nc4cccnc4)nc32)c1 |
| 4 nM | 236 nM | 59 | COc1cccc(-n2c(=O)n(Cc3c(F)cccc3F)c3cnc(NC4CC4)nc32)c1 |
| 72 nM | 2970 nM | 42 | COc1cccc(-n2c(=O)n(Cc3c(F)cccc3F)c3cnc(NCc4ccccc4)nc32)c1 |
| 60 nM | 616 nM | 10 | COc1cccc(-n2c(=O)n(Cc3c(F)cccc3F)c3cnc(NC(C)C)nc32)c1 |
| 86 nM | 2850 nM | 33 | COc1cccc(-n2c(=O)n(Cc3ccccc3Cl)c3cnc(NC4CC4)nc32)c1 |
| 1560 nM | – | – | COc1ccccc1Cn1c(=O)n(-c2ccccc2OC)c2nc(NC3CC3)ncc21 |
| 9210 nM | > 10000 nM | – | COc1cccc(Cn2c(=O)n(Cc3ccccc3OC)c3cnc(NC4CC4)nc32)c1 |
| 23 nM | 1110 nM | 49 | CNc1ncc2c(n1)n(-c1cccc(OC)c1)c(=O)n2Cc1c(F)cccc1F |
| 359 nM | – | – | COc1cccc(-n2c(=O)n(C(C)c3ccccc3)c3cnc(NC4CC4)nc32)c1 (centres undefined) |
| 316 nM | 1850 nM | 6 | COc1ccccc1Cn1c(=O)n(-c2cccc(C)c2)c2nc(NC3CC3)ncc21 |
| 66 nM | 1300 nM | 20 | COc1cccc(-n2c(=O)n(Cc3c(F)cccc3F)c3cnc(NCc4cccnc4)nc32)c1 |
| 54 nM | 564 nM | 10 | COc1cccc(-n2c(=O)n(Cc3ccccc3)c3cnc(NC4CC4)nc32)c1 |
| 2640 nM | – | – | COc1cccc(-n2c(=O)n(C)c3cnc(NC4CC4)nc32)c1 |
| 76 nM | 4640 nM | 61 | COc1cc(OC)cc(-n2c(=O)n(Cc3ccccc3OC)c3cnc(NC4CC4)nc32)c1 |
| 33 nM | 201 nM | 6 | COc1cccc(-n2c(=O)n(Cc3ccccc3F)c3cnc(NC4CC4)nc32)c1 |
| 259 nM | 8600 nM | 33 | COc1cccc(-n2c(=O)n(Cc3c(F)cccc3F)c3cnc(NCCN4CCOCC4)nc32)c1 |
| 50 nM | 1190 nM | 24 | COc1cccc(-n2c(=O)n(Cc3c(F)cccc3F)c3cnc(NCc4ccncc4)nc32)c1 |

| Compound | Ki (Adenosine receptor A2a) | Ki (Adenosine receptor A1) | Ratio Ki (Homo sapiens) |
| --- | --- | --- | --- |
| COc1cccc(-n2c(=O)n(Cc3c(F)cccc3F)c3cnc(NCc4ccccn4)nc32)c1 | 12 nM | 1210 nM | 100 |
| COc1cccc(-n2c(=O)n(Cc3c(F)cccc3F)c3cnc(NCCc4cccs4)nc32)c1 | 9 nM | 1970 nM | 220 |
